Laboratory results: paper PMC10780910, “Opioid/Dopamine Receptor Binding Studies, NMR and Molecular Dynamics Simulation of LENART01 Chimera, an Opioid-Bombesin-like Peptide” (Molecules, 2024)

Columns and labels:
MOR = test: Competitive [3H]DAMGO binding (MOR); design: species or system rat (Wistar); settings: receptor binding assay, rat brain and spinal cord homogenates
Text: (§1) The chimeric peptide LENART01 was examined in [^3H]DAMGO, [^3H]SCH−23390 and [^3H]Spiperone homolog displacement in rat brains and spinal cord homogenates. The binding affinity of the hybrid and its intrinsic activity value were compared with dermorphin and ranatensin, its structural components.
(§2) Figure 3 Binding affinity of LENART01 at MOR (A,B), D1R (C,D) and D2R (E,F) receptors, respectively, using [^3H]DAMGO and [^3H]SCH−23390 and [^3H]Spiperone as radioligands. Results represent mean ± SEM of 3 independent experiments, each performed in duplicate.
(§3) Both male and female Wistar rats were used for membrane preparations (brains and spinal cords). Animals were housed at 22 ± 0.5 °C with a 12:12 h light–dark cycle. Food and water were available ad libitum. All animal manipulations were carried out according to the European Communities Council Directives ([…]) and the Hungarian Act for the Protection of Animals in Research (XXVIII.tv. 32.§).
(§4) Competitive analysis of the chimera activity was performed in the presence of naloxone (in case of MOR displacement studies) or SCH-23390 (for D1R) and spiperone (for D2R). […] The radioactivity of the dried filters was detected using an UltimaGold^TM MV aqueous scintillation cocktail with a Packard Tricarb 2300TR liquid scintillation counter. […]

E. coli strains = settings: different E. coli strains; cited from earlier work
Text: (§5) Noteworthily, the N-terminal pharmacophore of LENART01 consists of dermorphin with an amino acid sequence of YdAFGYPS. At the same time, the C-terminus was constructed from ranatensin, which was additionally heavily modified, resulting in a sequence of GHFM.

[1] = system: opioid and dopamine receptors; test: Functional [35S]GTPγS binding, spinal cord membrane; type: biochemical, rat (Wistar); settings: for Emax / Emax ± S.E.M., Ligand + Risperidone / Emax ± S.E.M., ligand alone / Emax ± S.E.M., Ligand + Cyprodime: rat spinal cord membrane, 30 °C, 60 min; for Emax / Emax ± S.E.M., Ligand + Risperidone: dopaminergic system; for Emax: + SCH-39166 (selective D1R antagonist), ns vs ligand alone, read-out: Emax ± S.E.M., Ligand + SCH-39166; for Emax / Emax ± S.E.M., Ligand + Risperidone / Emax ± S.E.M., Ligand + Cyprodime: pH 7.4; for Emax ± S.E.M., Ligand + Risperidone: + risperidone (selective D2R antagonist); for Emax ± S.E.M., Ligand + Risperidone / Emax ± S.E.M., Ligand + Cyprodime: *** p < 0.001 vs ligand alone; for Emax ± S.E.M., ligand alone: Tris-EGTA pH 7.4, 0.05 nM [35S]GTPγS; for Emax ± S.E.M., Ligand + Cyprodime: opioid system, + cyprodime (selective MOR antagonist)
Protocol: as §3
(§6) The functional [^35S]GTPγS binding experiments were performed as previously described. In brief, the brain and spinal cord homogenates were incubated at 30 °C for 60 min in Tris-EGTA buffer (pH 7.4) containing [^35S]GTPγS (0.05 nM) and in the presence of varying concentrations of the ligand. Non-specific binding was determined in the presence of non-radiolabeled 10 μM GTPγS. The reaction was stopped by rapid filtration under vacuum (Brandel M24R Cell Harvester), and the samples were washed with cold Tris-HCl buffer. The radioactivity of the dried filters was determined by scintillation counting.

D2R = test: Competitive [3H]Spiperone binding (D2R); design: species or system rat (Wistar); settings: rat brain and spinal cord homogenates
Text: as §1, §2, §3, §4

[2] = system: opioid and dopamine receptors; test: Functional [35S]GTPγS binding, brain membrane; type: biochemical, rat (Wistar); settings: for Emax ± S.E.M., Ligand + Risperidone: + risperidone (selective D2R antagonist), *** p < 0.001 vs ligand alone; for Emax ± S.E.M., ligand alone: Tris-EGTA pH 7.4, 0.05 nM [35S]GTPγS; for Emax ± S.E.M., Ligand + Cyprodime: opioid system, + cyprodime (selective MOR antagonist), *** p < 0.001 vs ligand alone (unpaired t-test)
Protocol: as §3, §6

[3] = system: dopamine D2 receptor (D2R); settings: cited from earlier work
Text: as §5

dopaminergic receptors = settings: ref Zhu et al. 10; cited from earlier work
[4] = rat brain membrane, dopaminergic system, 30 °C, 60 min, pH 7.4
[5] = rat brain membrane, 30 °C, 60 min
[6] = rat brain membrane, 30 °C, 60 min, pH 7.4

| Substance | binding to MOR (MOR) | antimicrobial activity (E. coli strains) | Emax [1] | Emax ± S.E.M., Ligand + Risperidone [1] | Emax ± S.E.M., ligand alone [1] | Emax ± S.E.M., Ligand + Cyprodime [1] | maximal stimulation vs dermorphin ([1]; spinal cord membrane, [35S]GTPγS) | selectivity to D2R compared to D1R (D2R; [3H]Spiperone (D2R) vs [3H]SCH-23390 (D1R), Tris-HCl pH 7.4, 3 independent experiments in duplicate) | binding to dopamine receptors (D2R; receptor binding assay in vitro, abstract statement) | Emax ([2]; rat brain membrane, dopaminergic system, + SCH-39166 (selective D1R antagonist), 30 °C, 60 min, pH 7.4, ns for chimera, *** p < 0.001 for ranatensin, read-out: Emax ± S.E.M., Ligand + SCH-39166) | Emax ± S.E.M., Ligand + Risperidone [2, 4] | Emax ± S.E.M., ligand alone [2, 5] | Emax ± S.E.M., Ligand + Cyprodime [2, 6] | dose-dependent increases in functional binding vs dermorphin ([2]; rat brain membranes, [35S]GTPγS) | effect of SCH−39166 on efficacy ([2]; selective D1R antagonist SCH−39166, tissue not specified) | effect of risperidone on stimulation ([2]; selective D2R antagonist risperidone, tissue not specified) | effect of cyprodime on efficacy ([2]; selective MOR antagonist cyprodime, tissue not specified) | interaction with D2R [3] | analgesia and naloxone antagonism (dopaminergic receptors) | Emax ± S.E.M., Ligand + SCH-39166 ([2]; rat brain membrane, dopaminergic system, + SCH-39166 (selective D1R antagonist), 30 °C, 60 min, pH 7.4, ns for chimera, *** p < 0.001 for ranatensin) |
| --- | --- | --- | --- | --- | --- | --- | --- | --- | --- | --- | --- | --- | --- | --- | --- | --- | --- | --- | --- | --- |
| YdAFGYPSGHFM [LENART01] | bound to mu-opioid and dopamine receptors | antimicrobial activity against different E. coli strains | 136 ± 1.7% | 101.6 ± 1.2 *** % | 136.3 ± 2.2% | 100.8 ± 1.1 *** % | less than that of dermorphin | high selectivity to D2R compared to D1R | bound to mu-opioid and dopamine receptors | 140.8 ± 0.8% | 101.1 ± 0.7 *** % | 140.6 ± 1.0% | 100.4 ± 1.4 *** % | equal to the increases in dermorphin | did not significantly reverse the efficacy | brought down the stimulation of LENART01 to basal activity | reversed the efficacy | – | – | – |
| YdAFGYPS [dermorphin, reference compound] | – | – | – | – | 140.0 ± 1.8% | 100.4 ± 0.9 *** % | – | – | – | – | – | 140.5 ± 2.9% | 100.0 ± 1.1 *** % | – | – | – | – | – | – | – |
| ranatensin [reference compound] | did not bind to MOR | – | 117.4 ± 1.1% | 100.0 ± 0.7 *** % | 119.8 ± 1.3% | – | – | – | – | – | 101.5 ± 1.7 *** % | 124.1 ± 1.9% | – | – | – | – | – | known to interact with | naloxone failed to antagonize the pain-relieving effect | 119.1 ± 0.8 *** % |
